Values of other authors, collected in US20210023011A1, “METHOD AND SYSTEM FOR PRODUCING HIGH PURITY VANCOMYCIN HYDROCHLORIDE” (ZHEJIANG MEDICINE CO., LTD, priority 2013, published 2021).
Counter-ions that a name gives are not always drawn.

What was measured:
[1] = lyophilized powder

CN[C@H](CC(C)C)C(=O)N[C@H]1C(=O)N[C@@H](CC(N)=O)C(=O)N[C@H]2C(=O)N[C@H]3C(=O)N[C@H](C(=O)N[C@H](C(=O)O)c4cc(O)cc(O)c4-c4cc3ccc4O)[C@H](O)c3ccc(c(Cl)c3)Oc3cc2cc(c3O[C@@H]2O[C@H](CO)[C@@H](O)[C@H](O)[C@H]2O[C@H]2C[C@](C)(N)[C@H](O)[C@H](C)O2)Oc2ccc(cc2Cl)[C@H]1O [vancomycin hydrochloride, Vancomycin hydrochloride]
solubility in alcohol [1]: slightly soluble
solubility in water [1]: freely soluble
decrease of chromatographic purity (lyophilization at low temperature): ≥ 0.5%
decrease of purity level of the solution (vacuum drying at 40° C. within 8 hours): more than 1.0%
